Laboratory results: patent publication US5620890A, “Monoclonal antibodies to hygromycin B and the method of making the same” (The United States of America as represented by the …, priority 1995, dated 1997)

What was measured:
Format in all cases: binding, mouse
[1] = test system: monoclonal antibody HB-13 (IgG1, kappa; hybridoma ATCC HB-12167); assay: Competitive indirect ELISA (CI-ELISA), solid-phase antigen HB-SMPB-S-BSA; conditions: for cross-reactivity with the HB-13 antibody: competitor concentration of 50 ppm; for average IC50: free competitor in CI-ELISA
Experimental: The supernatant culture fluid from the cloned hybridomas may also be screened to select for those producing antibodies having a high affinity for hygromycin B. Affinity may be measured using a variety of well known techniques, such as ELISA, RIA or equilibrium dialysis using labelled hygromycin B. Competitive indirect ELISA (CI-ELISA) is preferred, and is conducted at a final antibody concentration (dilution from tissue culture supernatant) to give 50% of maximal binding to a hygromycin B coated substrate or assay well. In accordance with this embodiment, the antibody containing supernatant is added to a hygromycin B conjugate-coated solid substrate such as the wells of an assay plate, together with a range of concentrations of free hygromycin B as a competitor. Following incubation and washing, bound antibody in the wells is determined in the same manner as the indirect-ELISA. Percent inhibition may be calculated as (1-B/Bo)×100 where B is the optical density (OD) of a well with a competitor and Bo is the mean OD of the wells without competitor (control). […] However, for even greater accuracy, the affinity may be alternatively measured at 50% inhibition (IC50).
A competitive indirect ELISA (CI-ELISA) was used to determine the sensitivity and specificity of the monoclonal antibodies for binding hygromycin B. Microtiter plates were coated with HB-SMPB-S-BSA (400 ng/well) and blocked with 3% non-fat milk solution as described above. After washing five times with 0.05% Tween 20 in distilled water, 100 μL of hygromycin B standard in assay buffer (0.1M Tris, 0.15M NaCl, 0.05% Tween 20, 1% BSA, pH 7.5) and 100 μL antiserum (diluted 1:60 in assay buffer) were added to each well and incubated for 90 min at 37° C. Unbound antibody was removed by washing five times with the 0.05% Tween 20-water solution. Next, 50 μL of goat anti-mouse IgG-peroxidase conjugate (1:500 dilution) was added to each well. After a 60 min incubation at 37° C., the plates were washed ten times with 0.05% Tween 20, and bound antibody-peroxidase conjugate was determined using ABTS. Absorbance was read at 405 nm.
Each point represents the average of 6 replicates. […] The mean intraassay IC50 coefficient of variation (CV) was 7.8% (n=3), while a mean interassay IC50 coefficient of variation of 7.0% (n=3) was observed. […] HB-13 was also characterized as to its ability to recognize related aminoglycoside antibiotics, including spiramycin, gentamicin, kanamycin, amikacin and tylosin.

[2] = test system: monoclonal antibodies to hygromycin B obtained with the short immunization protocol; assay: Competitive indirect ELISA (CI-ELISA); conditions: range over antibodies from short immunization protocol
Experimental: (§1) The supernatant culture fluid from the cloned hybridomas may also be screened to select for those producing antibodies having a high affinity for hygromycin B. Affinity may be measured using a variety of well known techniques, such as ELISA, RIA or equilibrium dialysis using labelled hygromycin B. Competitive indirect ELISA (CI-ELISA) is preferred, and is conducted at a final antibody concentration (dilution from tissue culture supernatant) to give 50% of maximal binding to a hygromycin B coated substrate or assay well. […]
In the short immunization schedule, female BALB/c mice (6-8 weeks of age) were injected intraperitoneally (ip) with 75 μg of HB-SMPB-S-OVA (in 0.2 mL physiological saline/RIBI adjuvant). […] One week after the second injection, the mice were bled and serum titers were determined. […]
(§2) A competitive indirect ELISA (CI-ELISA) was used to determine the sensitivity and specificity of the monoclonal antibodies for binding hygromycin B. Microtiter plates were coated with HB-SMPB-S-BSA (400 ng/well) and blocked with 3% non-fat milk solution as described above. […] After a 60 min incubation at 37° C., the plates were washed ten times with 0.05% Tween 20, and bound antibody-peroxidase conjugate was determined using ABTS. Absorbance was read at 405 nm. […]

[3] = test system: monoclonal antibodies to hygromycin B obtained with the extended immunization protocol (including HB-3, HB-7, HB-13); assay: Competitive indirect ELISA (CI-ELISA); conditions: range over antibodies from extended immunization protocol
Experimental: as §1
In the extended immunization schedule, female BALB/c mice were immunized with 75 μg ip injections every two weeks for a total of three injections. On day 35, the mice were bled so that serum titers and antibody specificities could be determined. […]
as §2

Molecule | cross-reactivity with the HB-13 antibody [1] | further results
gentamicin | None of these compounds were observed to cross-react | 
NCC[C@H](O)C(=O)N[C@@H]1C[C@H](N)[C@@H](O[C@H]2O[C@H](CN)[C@@H](O)[C@H](O)[C@H]2O)[C@H](O)[C@H]1O[C@H]1O[C@H](CO)[C@@H](O)[C@H](N)[C@H]1O [amikacin] | None of these compounds were observed to cross-react | 
CNC1CC(N)C(O)C(OC2OC(CO)C(O)C3OC4(OC(C(N)CO)C(O)C(O)C4O)OC23)C1O (stereo not drawn) [hygromycin B] |  | average IC50 ([1]; each point average of 6 replicates): 76.2 ng/well; average IC50 ([1]; same value expressed as ppm): 0.762 ppm; IC50 [2]: 10-100 ppm; IC50 [3]: 0.7-1 ppm
NC[C@H]1O[C@H](O[C@H]2[C@H](O)[C@@H](O[C@H]3O[C@H](CO)[C@@H](O)[C@H](N)[C@H]3O)[C@H](N)C[C@@H]2N)[C@H](O)[C@@H](O)[C@@H]1O [kanamycin] | None of these compounds were observed to cross-react | 
spiramycin | None of these compounds were observed to cross-react | 
CC[C@H]1OC(=O)C[C@@H](O)[C@H](C)[C@@H](O[C@@H]2O[C@H](C)[C@@H](O[C@H]3C[C@@](C)(O)[C@@H](O)[C@H](C)O3)[C@H](N(C)C)[C@H]2O)[C@@H](CC=O)C[C@@H](C)C(=O)/C=C/C(C)=C/[C@@H]1CO[C@@H]1O[C@H](C)[C@@H](O)[C@@H](OC)[C@H]1OC [tylosin] | None of these compounds were observed to cross-react | 
